Experimental data taken from patent US4687843A, “Esterified propoxylated glucose compositions” (Amerchol Corporation, priority 1986, dated 1987).

How the values were obtained:
rabbits (eye) = settings: rabbit, in vivo
rabbits (dermal) = settings: rabbit, in vivo
[1] = in vivo

Draize test score (rabbits (eye)): negligible | Comedogenic Assay [1]: Non-comedogenic
Substance: PPG-20 Methyl Glucose Ether Distearate
Eye irritation (rabbits (eye)): Practically non-irritating | Primary dermal irritant (rabbits (dermal)): not a primary dermal irritant | Primary dermal irritation (rabbits (dermal)): Not a primary dermal irritant
